Non-standard residues stand in square brackets, D forms with d. No end group written: not given here. hArg = N=C(N)NCCCC[C@H](N)C(=O)O; Agb = N=C(N)NCC[C@H](N)C(=O)O; Agp = N=C(N)NC[C@H](N)C(=O)O; Orn = NCCC[C@H](N)C(=O)O; Dab = NCC[C@H](N)C(=O)O; Dap = NC[C@H](N)C(=O)O
Test system: S. aureus (MRSA SAP0017)
Assay type: cell-based, Staphylococcus aureus
Conditions: SPOT synthesized control peptides, determined as in Table 5; Table 7
Description: Methods of assessment of anti-biofilm activity: MRSA S. aureus strain SAP0017 biofilm formation was initially analyzed using a static abiotic solid surface assay as described elsewhere (de la Fuente-Nunez et al., 2012) and shown graphically in FIG. 2. Dilutions (1/100) of overnight cultures were incubated in BM2 biofilm-adjusted medium [62 mM potassium phosphate buffer (pH 7), 7 mM (NH4)2SO4, 2 mM MgSO4, 10 μM FeSO4, 0.4% (wt/vol) glucose, 0.5% (wt/vol) Casamino Acids], or a nutrient rich medium such as Tryptic soy broth supplemented with 1% glucose, in polypropylene microtiter plates (Falcon, United States) in the absence (control) or presence of peptide. Peptide was added at time zero (prior to adding the diluted, overnight cultures) in varying concentrations, and the amount biofilm formation was recorded after 22-46 h incubation for most bacteria. To quantify biofilm growth, planktonic cells were removed and biofilm cells adhering to the side of the wells were stained with crystal violet, and absorbance at 595 nm was measured using a microtiter plate reader (Bio-Tek Instruments Inc., United States).

Substance	% Biofilm Inhibition
C58 (V[Agp]LIVAVRIWRR) [Peptide C58]	96%
C59 (VR[Agp]IVAVRIWRR-NH2; N-terminus assumed; SMILES CC[C@H](C)[C@H](NC(=O)[C@H](CCCNC(=N)N)NC(=O)[C@@H](NC(=O)[C@H](C)NC(=O)[C@@H](NC(=O)[C@@H](NC(=O)[C@H](CNC(=N)N)NC(=O)[C@H](CCCNC(=N)N)NC(=O)[C@@H](N)C(C)C)[C@@H](C)CC)C(C)C)C(C)C)C(=O)N[C@@H](Cc1c[nH]c2ccccc12)C(=O)N[C@@H](CCCNC(=N)N)C(=O)N[C@@H](CCCNC(=N)N)C(N)=O) [Peptide C59]	104%
C60 (VRL[Agp]VAVRIWRR-NH2; N-terminus assumed; SMILES CC[C@H](C)[C@H](NC(=O)[C@H](CCCNC(=N)N)NC(=O)[C@@H](NC(=O)[C@H](C)NC(=O)[C@@H](NC(=O)[C@H](CNC(=N)N)NC(=O)[C@H](CC(C)C)NC(=O)[C@H](CCCNC(=N)N)NC(=O)[C@@H](N)C(C)C)C(C)C)C(C)C)C(=O)N[C@@H](Cc1c[nH]c2ccccc12)C(=O)N[C@@H](CCCNC(=N)N)C(=O)N[C@@H](CCCNC(=N)N)C(N)=O) [Peptide C60]	104%
C61 (VRLI[Agp]AVRIWRR-NH2; N-terminus assumed; SMILES CC[C@H](C)[C@H](NC(=O)[C@H](CC(C)C)NC(=O)[C@H](CCCNC(=N)N)NC(=O)[C@@H](N)C(C)C)C(=O)N[C@@H](CNC(=N)N)C(=O)N[C@@H](C)C(=O)N[C@H](C(=O)N[C@@H](CCCNC(=N)N)C(=O)N[C@H](C(=O)N[C@@H](Cc1c[nH]c2ccccc12)C(=O)N[C@@H](CCCNC(=N)N)C(=O)N[C@@H](CCCNC(=N)N)C(N)=O)[C@@H](C)CC)C(C)C) [Peptide C61]	101%
C62 (VRLIV[Agp]VRIWRR) [Peptide C62]	106%
C63 (VRLIVA[Agp]RIWRR-NH2; N-terminus assumed; SMILES CC[C@H](C)[C@H](NC(=O)[C@H](CCCNC(=N)N)NC(=O)[C@H](CNC(=N)N)NC(=O)[C@H](C)NC(=O)[C@@H](NC(=O)[C@@H](NC(=O)[C@H](CC(C)C)NC(=O)[C@H](CCCNC(=N)N)NC(=O)[C@@H](N)C(C)C)[C@@H](C)CC)C(C)C)C(=O)N[C@@H](Cc1c[nH]c2ccccc12)C(=O)N[C@@H](CCCNC(=N)N)C(=O)N[C@@H](CCCNC(=N)N)C(N)=O) [Peptide C63]	105%
C64 (VRLIVAV[Agp]IWRR) [Peptide C64]	107%
C65 (VRLIVAVR[Agp]WRR) [Peptide C65]	107%
C66 (VRLIVAVRI[Agp]RR) [Peptide C66]	107%
C67 (VRLIVAVRIW[Agp]R-NH2; N-terminus assumed; SMILES CC[C@H](C)[C@H](NC(=O)[C@H](CCCNC(=N)N)NC(=O)[C@@H](NC(=O)[C@H](C)NC(=O)[C@@H](NC(=O)[C@@H](NC(=O)[C@H](CC(C)C)NC(=O)[C@H](CCCNC(=N)N)NC(=O)[C@@H](N)C(C)C)[C@@H](C)CC)C(C)C)C(C)C)C(=O)N[C@@H](Cc1c[nH]c2ccccc12)C(=O)N[C@@H](CNC(=N)N)C(=O)N[C@@H](CCCNC(=N)N)C(N)=O) [Peptide C67]	105%
C68 (VRLIVAVRIWR[Agp]) [Peptide C68]	106%
C69 (V[Agb]LIVAVRIWRR) [Peptide C69]	81%
C70 (VR[Agb]IVAVRIWRR) [Peptide C70]	98%
C71 (VRL[Agb]VAVRIWRR; not fully specified (C-terminus); printed as VRLGbutVAVRIWRR) [Peptide C71]	103%
C72 (VRLI[Agb]AVRIWRR; not fully specified (C-terminus); printed as VRLIGbutAVRIWRR) [Peptide C72]	105%
C74 (VRLIVA[Agb]RIWRR) [Peptide C74]	106%
C75 (VRLIVAV[Agb]IWRR; not fully specified (C-terminus); printed as VRLIVAVGbutIWRR) [Peptide C75]	103%
C76 (VRLIVAVR[Agb]WRR; not fully specified (C-terminus); printed as VRLIVAVRGbutWRR) [Peptide C76]	104%
C77 (VRLIVAVRI[Agb]RR; not fully specified (C-terminus); printed as VRLIVAVRIGbutRR) [Peptide C77]	101%
C78 (VRLIVAVRIW[Agb]R; not fully specified (C-terminus); printed as VRLIVAVRIWGbutR) [Peptide C78]	101%
C79 (VRLIVAVRIWR[Agb]) [Peptide C79]	72%
C80 (V[hArg]LIVAVRIWRR) [Peptide C80]	99%
C81 (VR[hArg]IVAVRIWRR) [Peptide C81]	107%
C82 (VRL[hArg]VAVRIWRR) [Peptide C82]	106%

Substance	% Biofilm Inhibition
C83 (VRLI[hArg]AVRIWRR) [Peptide C83]	106%
C84 (VRLIVA[hArg]RIWRR; not fully specified (C-terminus)) [Peptide C84]	105%
C85 (VRLIVAVR[hArg]WRR) [Peptide C85]	99%
C86 (VRLIVAVRI[hArg]RR) [Peptide C86]	75%
C87 (V[Dap]LIVAVRIWRR) [Peptide C87]	73%
C88 (VR[Dap]IVAVRIWRR) [Peptide C88]	104%
C89 (VRL[Dap]VAVRIWRR) [Peptide C89]	99%
C91 (VRLIV[Dap]VRIWRR) [Peptide C91]	76%
C92 (VRLIVA[Dap]RIWRR) [Peptide C92]	103%
C93 (VRLIVAV[Dap]IWRR) [Peptide C93]	71%
C94 (VRLIVAVR[Dap]WRR) [Peptide C94]	92%
C95 (V[Dab]LIVAVRIWRR) [Peptide C95]	71%
C96 (VR[Dab]IVAVRIWRR) [Peptide C96]	89%
C97 (VRL[Dab]VAVRIWRR; not fully specified (C-terminus)) [Peptide C97]	102%
C98 (VRLI[Dab]AVRIWRR; not fully specified (C-terminus)) [Peptide C98]	103%
C99 (VRLIV[Dab]VRIWRR; not fully specified (C-terminus)) [Peptide C99]	100%
C100 (VRLIVA[Dab]RIWRR-NH2; N-terminus assumed; SMILES CC[C@H](C)[C@H](NC(=O)[C@H](CCCNC(=N)N)NC(=O)[C@H](CCN)NC(=O)[C@H](C)NC(=O)[C@@H](NC(=O)[C@@H](NC(=O)[C@H](CC(C)C)NC(=O)[C@H](CCCNC(=N)N)NC(=O)[C@@H](N)C(C)C)[C@@H](C)CC)C(C)C)C(=O)N[C@@H](Cc1c[nH]c2ccccc12)C(=O)N[C@@H](CCCNC(=N)N)C(=O)N[C@@H](CCCNC(=N)N)C(N)=O) [Peptide C100]	104%
C101 (VRLIVAV[Dab]IWRR-NH2; N-terminus assumed; SMILES CC[C@H](C)[C@H](NC(=O)[C@H](CCN)NC(=O)[C@@H](NC(=O)[C@H](C)NC(=O)[C@@H](NC(=O)[C@@H](NC(=O)[C@H](CC(C)C)NC(=O)[C@H](CCCNC(=N)N)NC(=O)[C@@H](N)C(C)C)[C@@H](C)CC)C(C)C)C(C)C)C(=O)N[C@@H](Cc1c[nH]c2ccccc12)C(=O)N[C@@H](CCCNC(=N)N)C(=O)N[C@@H](CCCNC(=N)N)C(N)=O) [Peptide C101]	103%
C102 (VRLIVAVR[Dab]WRR-NH2; N-terminus assumed; SMILES CC[C@H](C)[C@H](NC(=O)[C@H](CC(C)C)NC(=O)[C@H](CCCNC(=N)N)NC(=O)[C@@H](N)C(C)C)C(=O)N[C@H](C(=O)N[C@@H](C)C(=O)N[C@H](C(=O)N[C@@H](CCCNC(=N)N)C(=O)N[C@@H](CCN)C(=O)N[C@@H](Cc1c[nH]c2ccccc12)C(=O)N[C@@H](CCCNC(=N)N)C(=O)N[C@@H](CCCNC(=N)N)C(N)=O)C(C)C)C(C)C) [Peptide C102]	104%
C103 (VRLIVAVRI[Dab]RR-NH2; N-terminus assumed; SMILES CC[C@H](C)[C@H](NC(=O)[C@H](CCCNC(=N)N)NC(=O)[C@@H](NC(=O)[C@H](C)NC(=O)[C@@H](NC(=O)[C@@H](NC(=O)[C@H](CC(C)C)NC(=O)[C@H](CCCNC(=N)N)NC(=O)[C@@H](N)C(C)C)[C@@H](C)CC)C(C)C)C(C)C)C(=O)N[C@@H](CCN)C(=O)N[C@@H](CCCNC(=N)N)C(=O)N[C@@H](CCCNC(=N)N)C(N)=O) [Peptide C103]	102%
C104 (VRLIVAVRIW[Dab]R) [Peptide C104]	93%
C105 (VRLIVAVRIWR[Dab]) [Peptide C105]	96%
C106 (VR[Orn]IVAVRIWRR-NH2; N-terminus assumed; SMILES CC[C@H](C)[C@H](NC(=O)[C@H](CCCNC(=N)N)NC(=O)[C@@H](NC(=O)[C@H](C)NC(=O)[C@@H](NC(=O)[C@@H](NC(=O)[C@H](CCCN)NC(=O)[C@H](CCCNC(=N)N)NC(=O)[C@@H](N)C(C)C)[C@@H](C)CC)C(C)C)C(C)C)C(=O)N[C@@H](Cc1c[nH]c2ccccc12)C(=O)N[C@@H](CCCNC(=N)N)C(=O)N[C@@H](CCCNC(=N)N)C(N)=O) [Peptide C106]	104%
C107 (VRL[Orn]VAVRIWRR) [Peptide C107]	71%

Reference: US20210138025A1, “CATIONIC PEPTIDES WITH IMMUNOMODULATORY AND/OR ANTI-BIOFILM ACTIVITIES” (priority 2018, published 2021)
